Source: US20040266748A1, “Photosensitizing carbamate derivatives” (priority 2001, published 2004)

Assays:
[1] = system: subcutaneous chondrosarcoma tumors; experiment: Chondrosarcoma tumor growth delay after PDT; assay type: in vivo, Sprague-Dawley rats; conditions: rats; drug dose 2.0 μmol/kg; light dose 125 J/cm2; optimal conditions, 24 hrs post drug administration
Description: The carbamate compounds were formulated in egg yolk phosphatidyl choline (EYP) and phosphate buffered saline (PBS) (pH 7.4). These were sterilized by filtration through a 0.2-micron nylon filter and determined to be stable for at least several weeks following formulation by HPLC. Five Sprague-Dawley rats with subcutaneous chondrosarcoma tumors in the flank of a certain volume (150-250 mm^3) were injected intravenously with various drugs at various doses. Three hours after the injection the tumors were exposed to 664-nm light at light doses of 125 J/cm^2 or 200 J/cm^2. The end point of the study was the observation of tumor regrowth (averaged over the animals) following the treatment.
Table 2 illustrates the results for the best drug and light doses that were tested in the above system and are compared with the well known photosensitizer SnET2 under optimal conditions (24 hrs post drug administration).

normal skin = experiment: Normal skin clearance (skin response) of photosensitizers in irradiated hairless rats; assay type: in vivo; conditions: drug dose 0.5 μmol/Kg, light dose 150 mW/cm^2/125 J at activation wavelength, time point post injection
Text: Ester and amide cleavage appear to be the major metabolic routes. As stated previously, one of the inventors' surprising and unexpected biological observations was that the carbamate analogs produce limited skin phototoxicity. Table 1 outlines the normal skin clearance of several carbamate photosensitizers as determined by irradiating hairless rats at the activation wavelength of the photosensitizer at 150 mW/cm2/125 J at different time points post injection. As can be clearly seen, carbamate analogs elicit skin responses at very early time points (1-6 hrs) and not past 6 hrs. […] Examples in Table (1) include compounds (26) and (Chl) and (37) and (35). In these cases the hydroxylated parent tetrapyrroles (Chl) and (35), at drug doses of 0.5 μmol/Kg, elicit maximal normal skin responses at 24 and 48 hrs, respectively. By comparison, their carbamate analogs (26) and (37), at drug doses of 1.0 μmol/Kg and 1.5 μmol/Kg, respectively, elicit maximal skin responses at 6 hrs only. Clearly, if ester metabolism of the carbamate back to the parent hydroxylated macrocycle was rapid in blood plasma one would expect skin responses similar to parent hydroxylated macrocycle. This is not the case. It is known by the present inventors and others that metabolism of the propionic acid methyl ester functionality is generally slow in rat and human blood plasma (10-20% metabolism at 24 hrs).

Compound | Days (regrowth) [1] [days] | Skin Response (normal skin) [h]
CCOC(=O)C1=Cc2c3nc(cc4nc(cc5[n-]c(cc6[n-]c2c(C)c6CC)c(C)c5CC)C(C)=C4CC)[C@@H](C)[C@]13CC.[Cl-].[Cl-].[Sn] (racemic) [SnET2, Tin Ethyletiopurpurin] | 13 | 
diethanolsulfonylamide zinc octaethylbenzochlorin [(35)] |  | 48
